The record followed here is PubChem BioAssay AID262 (DTP/NCI, 2004).

“And” between values parts separate entries of the source, which are not always exact repeats. Identical values can stand only once.

This experiment has as its system LX-1 lung xenograft sc, nude mice, tumor weight. The experiment is described as follows: NCI In Vivo Anticancer Drug Screen. Data for tumor model Human Lung LX-1 Xenograft (subcutaneous) in NU/NU Swiss (nude) mice. The note with it: endpoint: optimum tumor weight change, higher = larger tumour. How it is done: The antitumor activity of compounds was measured in mice bearing transplantable tumors. Survival or tumor size were measured and the results are expressed as the measurement made in the treated group (T) divided by the measurement made in the vehicle treated control group (C). The tumor model used in this assay is Human Lung LX-1 Xenograft (subcutaneous) in NU/NU Swiss (nude) mice

Where [1] appears, read: dose: 0.75 mg/kg/injection, schedule: Q04DX003 (ip), vehicle: saline.
Setting [2] is: dose: 1.5 mg/kg/injection, schedule: Q04DX003 (ip), vehicle: saline.
Setting [3] is: dose: 50.0 mg/kg/injection, schedule: Q04DX003 (ip), vehicle: Klucel (hydroxypropylcellulose) (HPC).
Setting [4] is: dose: 100.0 mg/kg/injection, schedule: Q04DX003 (ip), vehicle: suspension in saline.
[5] abbreviates: dose: 200.0 mg/kg/injection, schedule: Q04DX003 (ip), vehicle: suspension in saline.
[6] abbreviates: dose: 400.0 mg/kg/injection, schedule: Q04DX003 (ip), vehicle: saline.
The mark [7] stands for this setting: dose: 400.0 mg/kg/injection, schedule: Q04DX003 (ip), vehicle: suspension in saline.
[8] abbreviates: dose: 100.0 mg/kg/injection, schedule: Q04DX003 (ip), vehicle: saline.
[9] abbreviates: dose: 200.0 mg/kg/injection, schedule: Q04DX003 (ip), vehicle: saline.
Setting [10] is: dose: 800.0 mg/kg/injection, schedule: Q04DX003 (ip), vehicle: saline.
Where [11] appears, read: dose: 25.0 mg/kg/injection, schedule: Q04DX003 (ip), vehicle: Klucel (hydroxypropylcellulose) (HPC).
[12] abbreviates: dose: 50.0 mg/kg/injection, schedule: Q04DX003 (ip), vehicle: saline.
The mark [13] stands for this setting: dose: 12.5 mg/kg/injection, schedule: Q04DX003 (ip), vehicle: Klucel (hydroxypropylcellulose) (HPC).
The mark [14] stands for this setting: dose: 6.25 mg/kg/injection, schedule: Q04DX003 (ip), vehicle: saline.
Where [15] appears, read: dose: 25.0 mg/kg/injection, schedule: Q04DX003 (ip), vehicle: saline.
The mark [16] stands for this setting: dose: 0.5 mg/kg/injection, schedule: Q04DX003 (ip), vehicle: saline.

As usually defined, the T/C is the ratio of treated to control. Regarding `COC1C(O)CC(OC2CC(OC3CC(O[C@@H]4C(=O)c5c(cc6cc(OC7CC(OC8CC(O)C(O)C(C)O8)C(O)C(C)O7)c(C)c(O)c6c5O)C[C@H]4[C@H](OC)C(=O)[C@@H](O)[C@@H](C)O)OC(C)C3O)OC(C)C2O)OC1C` (stereo not given in full), the T/C is, setting by setting: under setting [1], 104 % of control; under setting [2], 53 % of control and 62 % of control.
Regarding `O=NN(CCCl)C(=O)NC1CCCCC1`, the T/C reads like this: (dose: 10.0 mg/kg/injection, schedule: Q04DX003 (ip), vehicle: Klucel (hydroxypropylcellulose) (HPC)) 44 % of control; (dose: 20.0 mg/kg/injection, schedule: Q04DX003 (ip), vehicle: Klucel (hydroxypropylcellulose) (HPC)) 32 % of control.
For `CCCC(=O)OCc1cc(=O)n(C)c2c3c4c(cc12)c(C)cc(=O)n4CO3`, under setting [3], the T/C is 116 % of control.
In the case of `N[C@H](C(=O)O)[C@@H]1CC(Cl)=NO1`, the T/C by setting is: (dose: 8.0 mg/kg/injection, schedule: Q01DX009 (ip), vehicle: saline) 31 % of control; (dose: 16.0 mg/kg/injection, schedule: Q01DX009 (ip), vehicle: saline) 17 % of control; (dose: 32.0 mg/kg/injection, schedule: Q01DX009 (ip), vehicle: saline) 24 % of control; under setting [4], 36 % of control; under setting [5], 27 % of control; under setting [6], 6 % of control. In addition, under setting [7], the T/C is 15 % of control.
For `CO[C@@]12[C@H](COC(N)=O)C3=C(C(=O)C(C)=C(N)C3=O)N1C[C@@H]1N[C@@H]12`, the T/C by setting is: under setting [2], 98 % of control; (dose: 3.0 mg/kg/injection, schedule: Q04DX003 (ip), vehicle: saline) 40 % of control.
For the molecule `COc1ccc(C(N)=O)cc1N=NN(C)C`, the T/C (dose: 18.75 mg/kg/injection, schedule: Q04DX003 (ip), vehicle: Klucel (hydroxypropylcellulose) (HPC)) was 60 % of control.
Consider `N=c1nc2n(cc1F)[C@@H]1O[C@H](CO)[C@@H](O)[C@@H]1O2`, for which the T/C by setting is: under setting [8], 67 % of control; under setting [9], 59 % of control; under setting [6], 78 % of control; under setting [10], 72 % of control.
As to `COc1cc2c[n+](C)c3c4cc5c(cc4ccc3c2cc1OC)OCO5`, the T/C by setting is: (dose: 20.0 mg/kg/injection, schedule: Q04DX003 (ip), vehicle: saline with Tween-80) 105 % of control; (dose: 40.0 mg/kg/injection, schedule: Q04DX003 (ip), vehicle: saline with Tween-80) 34 % of control; (dose: 80.0 mg/kg/injection, schedule: Q04DX003 (ip), vehicle: saline with Tween-80) 54 % of control.
Turning to `Cc1c(N)nc(C(CC(N)=O)NCC(N)C(N)=O)nc1C(=O)NC(C(=O)NC(C)C(O)C(C)C(=O)NC(C(=O)NCCc1nc(-c2nc(C(=O)NCCCNC(C)c3ccccc3)cs2)cs1)C(C)O)C(OC1OC(CO)C(O)C(O)C1OC1OC(CO)C(O)C(OC(N)=O)C1O)c1cnc[nH]1` (stereo not given), the T/C by setting is: (dose: 15.0 mg/kg/injection, schedule: Q04DX003 (ip), vehicle: saline) 35 % of control; (dose: 30.0 mg/kg/injection, schedule: Q04DX003 (ip), vehicle: saline) 35 % of control.
Consider `COc1cccc2c1C(=O)c1c(O)c3c(c(O)c1C2=O)C[C@@](O)(C(=O)CO)C[C@@H]3OC1CC(N)CC(C)O1` (stereo not given in full), for which the T/C was 67 % of control (dose: 0.4 mg/kg/injection, schedule: Q04DX003 (ip), vehicle: water); 109 % of control (dose: 0.79 mg/kg/injection, schedule: Q04DX003 (ip), vehicle: water); 99 % of control (dose: 1.57 mg/kg/injection, schedule: Q04DX003 (ip), vehicle: water); 90 % of control (dose: 3.13 mg/kg/injection, schedule: Q04DX003 (ip), vehicle: water).
For the molecule `OC(CBr)C(O)C(O)C(O)CBr` (stereo not given), the T/C by setting is: under setting [11], 98 % of control; under setting [3], 66 % of control.
As to `O=C[C@@H](CO)O[C@H](C=O)n1cnc2c(=O)[nH]cnc21`, the T/C was 92 % of control under setting [4], 73 % of control under setting [5] and 62 % of control under setting [7].
On to `Oc1ccc(O)cc1`, for which, under setting [12], the T/C is 201 % of control.
Turning to `Nc1ccc(Cl)cc1N`, the T/C (dose: 100.0 mg/kg/injection, schedule: Q04DX003 (ip), vehicle: saline with Tween-80) is 101 % of control.
As for `CN(C)N=Nc1ccccc1`, the T/C under setting [13] was 94 % of control; the T/C under setting [11] was 61 % of control and 79 % of control.
Take `O=P1(NCCCl)OCCCN1CCCl` (stereo not given): the T/C by setting is: under setting [14], 26 % of control; under setting [15], 54 % of control; under setting [12], 39 % of control.
`Nc1cc2[nH]cnc2c(=O)[nH]1`: the T/C is 96 % of control under setting [12], 123 % of control under setting [8] and 112 % of control under setting [9].
With `O=CC(S)CO` (stereo not given), the T/C under setting [5] is 99 % of control.
On to `C=C(C)[C@H]1Cc2c(ccc3c2O[C@@H]2COc4cc(OC)c(OC)cc4[C@@H]2C3=O)O1`, for which the T/C (dose: 3.13 mg/kg/injection, schedule: Q04DX003 (ip), vehicle: saline) was 106 % of control; the T/C under setting [14] was 73 % of control; the T/C (dose: 12.5 mg/kg/injection, schedule: Q04DX003 (ip), vehicle: saline) is 91 % of control; the T/C under setting [15] was 102 % of control.
With `CCC[CH2][Sn]1([CH2]CCC)[O]C2C(CO)OC(n3ccc(N)nc3=O)C2[O]1` (stereo not given), the T/C (dose: 3.13 mg/kg/injection, schedule: Q04DX003 (ip), vehicle: Klucel (hydroxypropylcellulose) (HPC)) is 107 % of control and 108 % of control; the T/C (dose: 6.25 mg/kg/injection, schedule: Q04DX003 (ip), vehicle: Klucel (hydroxypropylcellulose) (HPC)) was 197 % of control; the T/C under setting [13] is 77 % of control.
`COc1cccc2c1C(=O)c1c(O)c3c(c(O)c1C2=O)C[C@@](O)(C(=O)CO)C[C@@H]3OC1CC(N)C(OC)C(C)O1` (stereo not given in full): the T/C (dose: 0.4 mg/kg/injection, schedule: Q04DX003 (ip), vehicle: saline) was 84 % of control; the T/C (dose: 0.79 mg/kg/injection, schedule: Q04DX003 (ip), vehicle: saline) was 106 % of control; the T/C (dose: 1.57 mg/kg/injection, schedule: Q04DX003 (ip), vehicle: saline) is 40 % of control.
Regarding `CC[C@]1(O)C[C@H]2CN(CCc3c([nH]c4ccccc34)[C@@](C(=O)OC)(c3cc4c(cc3OC)N(C=O)[C@H]3[C@@](O)(C(=O)OC)[C@H](OC(C)=O)[C@]5(CC)C=CCN6CC[C@]43[C@@H]65)C2)C1`, the T/C is 98 % of control (dose: 0.25 mg/kg/injection, schedule: Q04DX003 (ip), vehicle: saline) and 79 % of control under setting [16].
`CN(N=O)C(=O)N[C@@H](C=O)[C@@H](O)[C@H](O)[C@H](O)CO`: the T/C is, setting by setting: under setting [8], 150 % of control; under setting [9], 64 % of control.
Consider `N=c1ccn2c(n1)OC1C(O)C(CO)OC12` (stereo not given), for which the T/C under setting [9] is 66 % of control; the T/C under setting [6] is 83 % of control; the T/C under setting [7] was 45 % of control and 61 % of control; the T/C under setting [10] was 41 % of control; the T/C (dose: 800.0 mg/kg/injection, schedule: Q04DX003 (ip), vehicle: suspension in saline) was 17 % of control; the T/C (dose: 1600.0 mg/kg/injection, schedule: Q04DX003 (ip), vehicle: saline) was 18 % of control. Besides, the T/C (dose: 1600.0 mg/kg/injection, schedule: Q04DX003 (ip), vehicle: suspension in saline) was 27 % of control.
With `COc1ccc2c(NCCCCCCCCNc3c4ccccc4nc4cc(OC)ccc34)c3ccccc3nc2c1`, the T/C is, setting by setting: (dose: 0.5 mg/kg/injection, schedule: Q04DX003 (ip), vehicle: distilled water + alcohol) 67 % of control; under setting [16], 60 % of control; (dose: 1.0 mg/kg/injection, schedule: Q04DX003 (ip), vehicle: distilled water + alcohol) 45 % of control; (dose: 1.0 mg/kg/injection, schedule: Q04DX003 (ip), vehicle: saline) 61 % of control; (dose: 2.0 mg/kg/injection, schedule: Q04DX003 (ip), vehicle: distilled water + alcohol) 79 % of control; (dose: 2.0 mg/kg/injection, schedule: Q04DX003 (ip), vehicle: saline) 86 % of control. In addition, the T/C reads like this: (dose: 4.0 mg/kg/injection, schedule: Q04DX003 (ip), vehicle: distilled water + alcohol) 45 % of control; (dose: 4.0 mg/kg/injection, schedule: Q04DX003 (ip), vehicle: saline) 65 % of control.
On to `C[n+]1c(-c2cccc3ccccc23)c2cc(N)ccc2c2ccccc21`, for which the T/C under setting [1] is 61 % of control and the T/C under setting [2] was 57 % of control.
